Patent publication US20150299155A1, “Sesquiterpene lactone-based pharmaceutical composition for treating gastrointestinal diseases” (CHO DANG PHARM. CO., LTD., priority 2012, published 2015)
Marks after values point to notes of the source that are not given here.

Tests used:
[1] = tested on: HCl-Ethanol inducing gastritis model; experiment: HCl-Ethanol inducing gastritis model; type: in vivo, white rats; conditions: for anti-gastritis efficacy: all administration groups
Description: After white rats have been fasted for 24 hours, CD-101, CD-102 and CD-103 compound have been orally administered according to method disclosed in Mizui et al., Jap. J. Pharmacol. 33: pp. 939-945 (1983). After 1 hour, 1.5 ml of 60% ethanol including 150 mM HCl has been orally administered to each animal. 1 hour later, animals have been sacrificed by cervical dislocation. After removing the stomach, the stomach has been fixed by injection of 13 ml of 2% formalin for 1 hour. After fixed stomach has been spread out, the lesion area has been measured using the photo by digital camera. Computer program Image J 1.38 (NIH, Bethesda, Md.) has been applied for measuring gastric lesion area (mm^2) The lesion inhibition rate has been calculated according to following equation. Further, 50% effective dose (ED50) has been also calculated using regression analysis.
Lesion inhibition rate(%)={gastric lesion area of control group(mm^2)−gastric lesion area of drug administration group(mm^2)}/gastric lesion area of control group(mm^2)×100

[2] = tested on: Chinese hamster lung (CHL) cell; experiment: Chromosomal aberration test using Chinese hamster lung (CHL) cell; type: cell-based; conditions: for induction of chromosomal aberration: CHL cell, overall conclusion
Excerpt: For measuring the induction of chromosomal aberration, the chromosomal aberration test has been carried out using Chinese hamster lung (CHL) cell. 2 kinds of methods have been adopted, such as, metabolic activation method (+S9) using metabolic activation system and direct method (−S9) without metabolic activation system.
For determining the test material reacting concentration, the cell growth inhibition test has been carried out. The test material has been dissolved and diluted in dimethyl sulfoxide (DMSO). Regardless of metabolic activation system, 12 concentration steps (2.43, 4.87, 9.75, 19.5, 39.1, 78.1, 156.3, 312.5, 625, 1250, 2500, 5000 μg/ml) of test material have been prepared. The cells have been cultured for 24 hours as the same way of main test. […] The medium has been further cultured for 18 hours.
Based upon the data of cell growth inhibition test, maximum concentration has been determined when the cell growth has been inhibited up to 50% as the relative cell numbers.
Regardless of metabolic activation system, the test materials have been prepared after 24 hours from the initiation of test. Then, the number of chromosomal aberration has been counted.

[3] = tested on: indomethacin inducing stomach ulcer model; experiment: Indomethacin inducing stomach ulcer model; type: in vivo, white rats; conditions: oral; for anti-stomach ulcer efficacy: all administration groups
Description: After white rats have been fasted for 24 hours, CD-101, CD-102 and CD-103 compound have been orally administered according to method disclosed in Yamasaki et al., Jap. J. Pharmacol. 49: pp. 441-448 (1989). After 1 hour, indomethacin (50 mg/kg) has been orally administered to each animal After fasting for 5 hours, animals have been sacrificed by cervical dislocation. After removing the stomach, the stomach has been fixed by injection of 13 ml of 2% formalin for 1 hour. After fixed stomach has been spread out, the lesion area has been measured using the photo by digital camera. Computer program Image J 1.38 (NIH, Bethesda, Md.) has been applied for measuring gastric lesion area (mm^2) The lesion inhibition rate and 50% effective dose (ED50) have been calculated as the same manner of HCl-EtOH model.

SMILES	Chromosomal aberration test Results ([2]; +S9, dose 10 μg/kg)	induction of chromosomal aberration [2]	Chromosomal aberration test Results ([2]; −S9, dose 2.5 μg/ml)	anti-gastritis efficacy ([1]; oral)	Lesion inhibition rate ([1]; oral, dose 1 mg/kg)	Lesion inhibition rate ([1]; oral, dose 3 mg/kg)	Lesion inhibition rate ([1]; oral, dose 10 mg/kg)	anti-stomach ulcer efficacy [3]	Lesion inhibition rate ([3]; dose 1 mg/kg)	Lesion inhibition rate ([3]; dose 3 mg/kg)	Lesion inhibition rate ([3]; dose 10 mg/kg)	Chromosomal aberration test Result ([2]; Table 5, +S9, dose not stated)	Chromosomal aberration test Result ([2]; Table 5, −S9, dose not given)	also measured
CC1=C2C3OC(=O)[C@@H](C)[C@@H]3CC[C@@]2(C)C=CC1=O (stereo partly drawn)	–	–	–	–	–	–	–	–	–	–	–	–	–	Lesion inhibition rate ([1]; Table 2, ineffective compounds, dose not stated): no effect
C=C1C(=O)O[C@@H]2[C@@H](O)[C@]3(C)CC[C@H]3[C@](C)(OC)CC[C@@H]12 [CD-101]	negative	do not induce the chromosomal aberration	negative	dose dependent manner	42.3%	74.7%	91.8%	dose dependent manner	26.9%	56.6%	73.1%	–	–	Chromosomal aberration test Results ([2]; +S9, dose 20 μg/kg): negative; Chromosomal aberration test Results ([2]; +S9, dose 40 μg/kg): negative; Chromosomal aberration test Results ([2]; −S9, dose 5 μg/kg): negative; Chromosomal aberration test Results ([2]; −S9, dose 10 μg/kg): negative
C=C1C(=O)O[C@@H]2[C@@H]3[C@@H](CC[C@@]3(C)O)C(=C)CC[C@@H]12 [CD-102]	negative	do not induce the chromosomal aberration	negative	dose dependent manner	43.0%	70.4%	94.9%	dose dependent manner	41.6%	56.1%	77.2%	–	–	Chromosomal aberration test Results ([2]; +S9, dose 5 μg/kg): negative; Chromosomal aberration test Results ([2]; +S9, dose 20 μg/kg): negative; Chromosomal aberration test Results ([2]; −S9, dose 1.25 μg/kg): negative; Chromosomal aberration test Results ([2]; −S9, dose 5 μg/kg): negative; ED50 ([1]; Rattus norvegicus, oral, regression analysis of lesion inhibition, read-out: 50% effective dose (ED50)): 1.31 mg/kg; Gastric lesion area ([1]; oral, dose 1 mg/kg): 133.5 ± 21.0* mm^2; Gastric lesion area ([1]; oral, dose 3 mg/kg): 69.4 ± 18.4* mm^2; Gastric lesion area ([1]; oral, dose 10 mg/kg): 11.9 ± 10.0* mm^2; ED50 ([3]; Rattus norvegicus, regression analysis of lesion inhibition, read-out: 50% effective dose (ED50)): 1.82 mg/kg; Gastric lesion area ([3]; dose 1 mg/kg): 35.0 ± 5.2 mm^2; Gastric lesion area ([3]; dose 3 mg/kg): 26.3 ± 6.8* mm^2; Gastric lesion area ([3]; dose 10 mg/kg): 13.6 ± 2.9* mm^2
C=C1C(=O)O[C@@H]2[C@@H]3[C@@H](CC[C@@]3(C)O)[C@](C)(OC)CC[C@@H]12 [CD-103]	negative	do not induce the chromosomal aberration	negative	dose dependent manner	56.9%	66.9%	99.5%	dose dependent manner	37.9%	57.3%	74.0%	–	–	Chromosomal aberration test Results ([2]; +S9, dose 2.5 μg/ml): negative; Chromosomal aberration test Results ([2]; +S9, dose 5 μg/kg): negative; Chromosomal aberration test Results ([2]; −S9, dose 0.625 μg/kg): negative; Chromosomal aberration test Results ([2]; −S9, dose 1.25 μg/kg): negative; Lesion inhibition rate ([1]; oral, dose 30 mg/kg): 99.5%; 50% effective dose (ED50) ([1]; oral, regression analysis of lesion inhibition): 2.55 mg/kg; 50% effective dose (ED50) ([3]; regression analysis of lesion inhibition): 2.06 mg/kg
CO[C@@]12[C@H](COC(N)=O)C3=C(C(=O)C(C)=C(N)C3=O)N1C[C@@H]1N[C@@H]12 [Mitomycin C, reference compound]	–	–	–	–	–	–	–	–	–	–	–	–	–	Chromosomal aberration test Results ([2]; −S9, dose 0.5 μg/kg): positive
O=C(NC(Cc1cc(=O)[nH]c2ccccc12)C(=O)O)c1ccc(Cl)cc1 (stereo not drawn) [Rebamipide, reference compound]	–	–	–	–	–	–	–	–	–	–	–	–	–	Lesion inhibition rate ([1]; oral, dose 50 mg/kg): 30%; Lesion inhibition rate ([3]; dose 50 mg/kg): 49.6%
C=C1C(=O)O[C@@H]2/C=C(\C)CC/C=C(\C)C[C@@H](OC(C)=O)C12 (stereo partly drawn) [reference compound]	–	–	–	–	–	–	–	–	–	–	–	positive positive	positive positive	–
C=C1C(=O)O[C@@H]2/C=C(\C)CCC(O)C(C)(O)C[C@@H](OC(C)=O)C12 (stereo partly drawn) [reference compound]	–	–	–	–	–	–	–	–	–	–	–	positive positive	positive positive	–
CC(=O)O[C@@H]1/C=C(\C)CCC/C(C)=C/[C@H]2OC(=O)[C@H](CN(C)C)C12 (stereo partly drawn) [reference compound]	–	–	–	–	–	–	–	–	–	–	–	positive positive	positive positive	–
